Results from patent US20120184517A1, “TREATMENT OF DISEASES WITH ALTERED SMOOTH MUSCLE CONTRACTILITY” (priority 2009, published 2012).
“Also recorded” adds a separate entry of the source.

Tests used:
BKCa channel (mSlo) = target: T1, BKCa channel (mSlo) (Mus musculus, UniProt Q08460); assay: Whole cell patch clamp of HEK293 cells stably transfected with mSlo; format: cell-based, murine
T1 construct: expressed in transfected cells
Procedure: FIGS. 4A and 4B show representative current traces from whole cell patches with 5 mM EGTA in patch pipette. […] Voltage steps are shown at the right of each tracing; note the different maximum voltage steps +200 mV (upper) vs. +120 mV (lower). […] FIG. 4C G-V curves were constructed for indicated conditions utilizing tail analysis (Xia, et al., Multiple regulatory sites in large-conductance calcium-activated potassium channels. Nature, 2002. 418(6900):880-4). Solid lines were fitted with Boltzmann function. […] FIGS. 4D and 4E show experiments studying stable mslo HEK293 cells in whole cell configuration with a pipette solution containing 5 mM EGTA (˜0 free Ca^2+).
Current in the diary plot in FIG. 5B represents maximal current in ramp protocol at +70 mV. Holding potential of ramp was −20 mV, with ramp from −30 mV to +180 mV over 500 ms. The G-V curve in FIG. 5C was generated from the tail analysis as described in FIG. 4.
Current was monitored with a ramp protocol; holding potential −60 mV, with ramp from −80 mV to +150 mV over 500 ms. […] Analysis was performed using tail analysis with normalization as previously described (Xia, et al., Multiple regulatory sites in large-conductance calcium-activated potassium channels. Nature, 2002. 418(6900):880-4). […] Identification of the BKCa channel was determined by conductance and inhibition by iberiotoxin and TEA. […] Murine femoral arterial rings were isolated and placed in a wire myograph. […] The figures shown are representative of 4 similar experiments. Error bars are standard error of the mean (SEM). Asterisk (*) indicates p<0.001.

OVA-challenged animals = details: in vivo; cited from earlier work

T1 sequence (Q08460 whole entry): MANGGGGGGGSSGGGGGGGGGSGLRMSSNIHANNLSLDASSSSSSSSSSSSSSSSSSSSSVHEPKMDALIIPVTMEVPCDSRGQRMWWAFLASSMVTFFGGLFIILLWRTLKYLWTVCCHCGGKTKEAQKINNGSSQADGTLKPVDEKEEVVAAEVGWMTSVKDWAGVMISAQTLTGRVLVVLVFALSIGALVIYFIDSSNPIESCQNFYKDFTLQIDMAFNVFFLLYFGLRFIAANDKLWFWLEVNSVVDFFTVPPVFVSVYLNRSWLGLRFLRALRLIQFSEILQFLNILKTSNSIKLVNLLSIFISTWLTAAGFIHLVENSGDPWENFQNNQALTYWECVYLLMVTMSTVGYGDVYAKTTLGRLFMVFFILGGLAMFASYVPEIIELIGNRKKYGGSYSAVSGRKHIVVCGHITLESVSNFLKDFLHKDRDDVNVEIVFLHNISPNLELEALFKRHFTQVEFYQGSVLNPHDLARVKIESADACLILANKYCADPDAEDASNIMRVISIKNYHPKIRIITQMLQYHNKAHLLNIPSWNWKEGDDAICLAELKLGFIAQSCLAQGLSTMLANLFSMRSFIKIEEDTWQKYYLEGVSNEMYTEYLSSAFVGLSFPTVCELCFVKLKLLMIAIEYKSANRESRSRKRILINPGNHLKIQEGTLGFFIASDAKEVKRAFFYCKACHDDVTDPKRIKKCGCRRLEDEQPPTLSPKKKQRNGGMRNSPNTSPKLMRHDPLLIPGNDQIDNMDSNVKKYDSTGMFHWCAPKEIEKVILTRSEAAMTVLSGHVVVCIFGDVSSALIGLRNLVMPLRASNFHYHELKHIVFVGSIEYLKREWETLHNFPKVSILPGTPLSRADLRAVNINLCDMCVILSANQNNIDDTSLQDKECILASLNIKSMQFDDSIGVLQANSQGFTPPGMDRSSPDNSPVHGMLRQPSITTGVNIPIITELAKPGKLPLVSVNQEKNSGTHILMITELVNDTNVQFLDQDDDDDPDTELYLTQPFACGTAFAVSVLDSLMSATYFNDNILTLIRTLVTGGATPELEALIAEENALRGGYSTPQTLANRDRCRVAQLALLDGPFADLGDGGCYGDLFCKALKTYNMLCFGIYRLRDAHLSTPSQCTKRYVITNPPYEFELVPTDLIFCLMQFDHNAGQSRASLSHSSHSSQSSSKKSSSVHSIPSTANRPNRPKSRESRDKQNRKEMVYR

CC(=O)c1c(O)c(C)c(O)c(Cc2c(O)c3c(c(C(=O)/C=C/c4ccccc4)c2O)OC(C)(C)C=C3)c1O [rottlerin, 5,7-dihydroxy-2,2-dimethyl-6-(2,4,6-trihydroxy-3-methyl-5-acetylbenzyl)-8-cinnamoyl-I,2-chromene]
tail currents (deactivation) (BKCa channel (mSlo); after exposure to rottlerin): markedly prolonged
concentration at which channel activity was dramatically increased (BKCa channel (mSlo); extracellular, non-Ca2+ dependent, reversible): < 100 nM
current after NS-1619 administration (BKCa channel (mSlo); rottlerin 0.5 μM added after NS-1619, 0 Ca2+): incrementally increased current
effect of intracellular dialysis on channel activity (BKCa channel (mSlo); up to 20 μM in patch pipette, 25 minutes): only a relatively small effect; also recorded: minimal effect
histamine in BAL fluid (OVA-challenged animals): inhibits an increase of histamine
